From ChEMBL document CHEMBL1201862, “PubChem BioAssay data set” (2004)
One block for each molecule: values may come before it. The source made the active and inactive calls.

Legend:
[1] = target: T1, E3 ubiquitin-protein ligase XIAP (Homo sapiens, UniProt P98170); assay: Counter Screen using XIAP-Bir3 for Chemical Antagonists of Bir1/2 domains of IAP-family anti-apoptotic proteins. [Related pubchem assays (depositor defined):AID1018, AID1449, AID1514, AID1638, AID1749, AID1750, AID488957, AID488963]
[2] = target: T2, Polyadenylate-binding protein 1 (Homo sapiens, UniProt P11940); assay: PABP1 MLLE–PAM2 binding inhibitor potency, dose response, biochemical, fluorescence polarization, FITC-PAM2 peptide (AID 602259); format: functional; conditions: read-out: IC50_Mean
[3] = target: T2, Polyadenylate-binding protein 1; assay: PABP1 MLLE–PAM2 interaction inhibitors, dose response, miRNA deadenylation inhibitor project, biochemical, fluorescence polarization, Cy5-PAM2 peptide, secondary (AID 602260); format: functional; conditions: read-out: IC50_Mean
[4] = target: T1, E3 ubiquitin-protein ligase XIAP; assay: XIAP antagonists, biochemical, IAP family, fluorescence polarization (AID 1018); format: functional
[5] = target: Peroxisome proliferator-activated receptor gamma/Nuclear receptor coactivator 3 (Homo sapiens, UniProt P37231); assay: (§1) TR-FRET dose response biochemical High Throughput Screening assay for agonists of the steroid receptor coactivator 3 (SRC-3) recruitment by the peroxisome proliferator-activated receptor gamma (PPAR gamma): non-selective agonists. [Related pubchem assays: 1301 (Confirmation screen.), 1048 (Primary screen.)]; format: functional
[6] = target: Photoreceptor-specific nuclear receptor (Homo sapiens, UniProt Q9Y5X4); assay: NR2E3 inverse agonists, dose response, biochemical, TR-FRET (AID 463256); format: functional
[7] = target: Peroxisome proliferator-activated receptor gamma/Nuclear receptor corepressor 2 (Homo sapiens, UniProt P37231+Q9Y618); assay: Counterscreen for NR2E3 inverse agonists: TR-FRET-based biochemical high throughput dose response assay to identify inverse agonists of the interaction between peroxisome proliferator-activated receptor gamma (PPARg) and nuclear receptor co-repressor 2 (NCOR2).; format: functional
[8] = target: Peroxisome proliferator-activated receptor gamma/Nuclear receptor coactivator 1 (Homo sapiens, UniProt P37231); assay: as §1, with “1 (SRC-1)” for “3 (SRC-3)”, “assays (depositor defined):AID1300, AID1808, AID504735, AID631]” for “assays: 1301 (Confirmation screen.), 1048 (Primary screen.)]”; format: protein assay
[9] = target: Peroxisome proliferator-activated receptor gamma/Nuclear receptor coactivator 2 (Homo sapiens, UniProt P37231); assay: TR-FRET dose response biochemical High Throughput Screening assay for agonists of the steroid receptor coactivator 2 (SRC-2) recruitment by the peroxisome proliferator-activated receptor gamma (PPAR gamma): non-selective agonists. [Related pubchem assays: 1297, 1032 ]; format: functional
[10] = target: SWI/SNF-related matrix-associated actin-dependent regulator of chromatin subfamily A member 2 (Homo sapiens, UniProt P51531); assay: Luminescence-based cell-based high throughput dose response assay to identify activators of the function of SWI/SNF related, matrix associated, actin dependent regulator of chromatin, subfamily a, member 2 (SMARCA2, BRM).; format: functional
[11] = target: T3, Type-1 angiotensin II receptor (Homo sapiens, UniProt P30556); assay: AT1 receptor agonists, dose response, selectivity assay for APJ receptor agonist project, cell-based, uHTS hits (AID 488865); format: functional;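 also: beta-arrestin recruitment to AT1 measured by enzyme fragment complementation luminescence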
T3 sequence (P30556 whole entry): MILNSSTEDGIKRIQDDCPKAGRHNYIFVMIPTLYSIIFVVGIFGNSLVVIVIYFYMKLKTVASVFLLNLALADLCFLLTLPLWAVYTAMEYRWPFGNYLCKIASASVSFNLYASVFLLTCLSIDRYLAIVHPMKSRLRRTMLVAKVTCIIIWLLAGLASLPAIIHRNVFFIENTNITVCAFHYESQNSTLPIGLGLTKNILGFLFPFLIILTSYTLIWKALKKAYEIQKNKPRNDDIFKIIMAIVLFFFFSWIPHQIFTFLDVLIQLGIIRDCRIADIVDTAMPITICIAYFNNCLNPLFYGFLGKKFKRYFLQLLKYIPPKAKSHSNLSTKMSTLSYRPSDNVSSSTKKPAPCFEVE

Coagulation factor XII = target: T4, Coagulation factor XII (Homo sapiens, UniProt P00748); format: functional;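 also: activated factor XIIa alpha cleaving a fluorogenic AMC peptide substrate; inhibitor potency from loss of enzyme activity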
T4 sequence (P00748 whole entry): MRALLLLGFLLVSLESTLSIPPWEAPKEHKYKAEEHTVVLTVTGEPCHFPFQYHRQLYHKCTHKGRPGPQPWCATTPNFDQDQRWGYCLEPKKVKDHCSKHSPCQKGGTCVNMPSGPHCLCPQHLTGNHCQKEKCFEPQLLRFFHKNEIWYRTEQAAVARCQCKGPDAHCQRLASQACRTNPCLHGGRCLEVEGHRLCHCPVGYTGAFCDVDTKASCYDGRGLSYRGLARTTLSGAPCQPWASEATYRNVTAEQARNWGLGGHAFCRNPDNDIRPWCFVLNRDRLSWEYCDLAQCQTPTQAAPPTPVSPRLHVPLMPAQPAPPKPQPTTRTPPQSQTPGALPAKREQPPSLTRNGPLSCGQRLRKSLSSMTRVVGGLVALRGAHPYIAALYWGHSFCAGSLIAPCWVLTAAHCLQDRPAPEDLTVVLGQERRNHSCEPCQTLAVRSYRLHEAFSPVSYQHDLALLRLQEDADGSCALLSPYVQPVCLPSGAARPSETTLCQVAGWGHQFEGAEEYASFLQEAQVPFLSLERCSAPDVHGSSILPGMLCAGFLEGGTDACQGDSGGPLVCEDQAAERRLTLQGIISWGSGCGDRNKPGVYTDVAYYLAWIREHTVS

[12] = Counterscreen for activators of the function of SWI/SNF related, matrix associated, actin dependent regulator of chromatin, subfamily a, member 2 (SMARCA2, BRM): Luminescence-based cell-based high throughput dose response assay to identify non-selective compounds using the VP16 reporter assay.; format: functional
Troponin, cardiac muscle = Troponin, cardiac muscle (Homo sapiens, UniProt P19429+P45379+P63316); assay: Fluorescence-based biochemical high throughput dose response assay for activators of the calcium sensitivity of cardiac Regulated Thin Filaments (RTF). [Related pubchem assays (depositor defined):AID493008, AID493018, AID504382, AID504383]; format: protein-complex assay
SUMO-activating enzyme = SUMO-activating enzyme (Homo sapiens, UniProt Q9UBT2); assay: SUMOylation inhibitor hit validation, confirmation, SUMOylation inhibitor project, biochemical, AlphaScreen (AID 2018); format: functional
[13] = target: T5, Alkaline phosphatase, tissue-nonspecific isozyme (Homo sapiens, UniProt P05186); assay: human TNAP enzyme inhibitors, SAR follow-up, biochemical, luminescent, dose response (AID 1056)
T5 sequence (P05186 whole entry): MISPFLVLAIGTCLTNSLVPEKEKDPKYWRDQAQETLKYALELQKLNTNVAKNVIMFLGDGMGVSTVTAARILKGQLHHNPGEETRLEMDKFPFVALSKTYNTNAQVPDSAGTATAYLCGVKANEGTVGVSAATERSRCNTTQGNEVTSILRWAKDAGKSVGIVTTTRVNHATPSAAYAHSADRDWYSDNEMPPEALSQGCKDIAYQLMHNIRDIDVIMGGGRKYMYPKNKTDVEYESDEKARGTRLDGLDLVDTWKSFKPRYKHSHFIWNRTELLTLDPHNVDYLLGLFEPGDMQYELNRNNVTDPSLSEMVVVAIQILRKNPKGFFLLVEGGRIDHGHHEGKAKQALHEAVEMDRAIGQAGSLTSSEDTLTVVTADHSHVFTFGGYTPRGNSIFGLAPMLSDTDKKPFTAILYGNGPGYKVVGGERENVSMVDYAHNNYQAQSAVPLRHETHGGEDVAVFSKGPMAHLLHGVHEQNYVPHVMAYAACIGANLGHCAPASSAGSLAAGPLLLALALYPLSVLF

[14] = target: Glyceraldehyde-3-phosphate dehydrogenase (Homo sapiens, UniProt P04406)
[15] = target: T6, Corticotropin-releasing factor receptor 2/Corticotropin-releasing factor-binding protein (Homo sapiens, UniProt P24387+Q13324); assay: Dose Response confirmation of uHTS hits for small molecule antagonists of the CRF-binding protein and CRF-R2 receptor complex.; format: functional; conditions: read-out: IC50_Mean
T6 sequence (Q13324 whole entry): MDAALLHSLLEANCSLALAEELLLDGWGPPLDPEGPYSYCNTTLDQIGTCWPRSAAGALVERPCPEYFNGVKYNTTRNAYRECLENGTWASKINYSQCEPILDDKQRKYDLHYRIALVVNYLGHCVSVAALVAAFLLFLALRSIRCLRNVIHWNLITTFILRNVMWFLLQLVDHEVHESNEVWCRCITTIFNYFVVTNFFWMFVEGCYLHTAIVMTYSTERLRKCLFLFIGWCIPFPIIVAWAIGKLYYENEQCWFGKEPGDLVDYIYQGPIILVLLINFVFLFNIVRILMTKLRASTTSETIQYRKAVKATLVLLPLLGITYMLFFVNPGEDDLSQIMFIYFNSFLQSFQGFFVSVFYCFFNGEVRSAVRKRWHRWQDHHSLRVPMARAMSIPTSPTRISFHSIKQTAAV
T6 sequence (P24387 whole entry): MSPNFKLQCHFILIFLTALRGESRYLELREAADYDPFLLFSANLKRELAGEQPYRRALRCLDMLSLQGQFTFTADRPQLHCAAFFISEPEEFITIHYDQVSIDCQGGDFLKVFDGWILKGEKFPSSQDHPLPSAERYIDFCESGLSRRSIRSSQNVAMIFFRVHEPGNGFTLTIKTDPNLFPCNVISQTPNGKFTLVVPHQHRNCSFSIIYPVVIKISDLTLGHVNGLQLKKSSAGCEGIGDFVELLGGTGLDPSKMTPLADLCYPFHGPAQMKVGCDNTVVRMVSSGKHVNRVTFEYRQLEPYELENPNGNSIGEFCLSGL

[16] = target: T6, Corticotropin-releasing factor receptor 2/Corticotropin-releasing factor-binding protein; assay: activators of CRF receptor 2 with binding protein – uHTS hits, confirmation (AID 602473); format: functional; conditions: read-out: EC50_Mean
[17] = target: T7, COUP transcription factor 2 (Homo sapiens, UniProt P24468); assay: Luminescence-based cell-based high throughput dose response assay to identify inhibitors of COUP-TFII (NR2F2).; format: functional;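 also: HEK293 cells transiently cotransfected with COUP-TFII expression vector and reporter; luciferase reporter luminescence driven by COUP-TFII from the pX2-168 reporter plasmid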
T7 sequence (P24468 whole entry): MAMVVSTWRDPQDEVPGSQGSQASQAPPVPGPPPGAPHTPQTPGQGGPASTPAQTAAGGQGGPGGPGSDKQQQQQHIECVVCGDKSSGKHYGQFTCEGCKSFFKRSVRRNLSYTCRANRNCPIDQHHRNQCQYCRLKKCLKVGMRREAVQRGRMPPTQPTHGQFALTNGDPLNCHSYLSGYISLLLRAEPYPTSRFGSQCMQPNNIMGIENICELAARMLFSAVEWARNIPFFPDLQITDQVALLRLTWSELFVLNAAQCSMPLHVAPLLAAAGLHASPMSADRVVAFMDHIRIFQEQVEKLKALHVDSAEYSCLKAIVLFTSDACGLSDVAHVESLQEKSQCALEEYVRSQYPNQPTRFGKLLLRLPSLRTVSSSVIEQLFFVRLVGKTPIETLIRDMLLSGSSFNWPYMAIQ

INS1 = assay: beta cell apoptosis inhibitors, cytokine rescue, dose response, luminescence, retest (AID 449756); format: functional, cell-based; conditions: Rattus norvegicus;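 also: cell death triggered by IL-1 beta plus TNF-alpha plus IFN-gamma mixture; protective hits raise ATP signal compared with cytokine alone wells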

T1 sequence (P98170 whole entry): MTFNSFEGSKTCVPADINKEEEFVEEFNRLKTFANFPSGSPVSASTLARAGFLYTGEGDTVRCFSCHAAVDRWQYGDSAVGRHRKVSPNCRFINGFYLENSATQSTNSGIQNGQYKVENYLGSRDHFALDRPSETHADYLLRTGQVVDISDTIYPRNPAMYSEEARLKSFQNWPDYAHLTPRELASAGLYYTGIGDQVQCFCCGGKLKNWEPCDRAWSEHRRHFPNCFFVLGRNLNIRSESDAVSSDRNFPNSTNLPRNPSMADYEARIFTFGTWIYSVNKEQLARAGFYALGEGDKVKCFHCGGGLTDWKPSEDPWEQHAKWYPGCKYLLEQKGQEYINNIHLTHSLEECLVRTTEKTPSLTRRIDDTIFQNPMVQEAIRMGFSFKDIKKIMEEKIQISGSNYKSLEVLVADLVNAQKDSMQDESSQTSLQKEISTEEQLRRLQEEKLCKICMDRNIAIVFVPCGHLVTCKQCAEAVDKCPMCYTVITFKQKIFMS
T2 sequence (P11940 whole entry): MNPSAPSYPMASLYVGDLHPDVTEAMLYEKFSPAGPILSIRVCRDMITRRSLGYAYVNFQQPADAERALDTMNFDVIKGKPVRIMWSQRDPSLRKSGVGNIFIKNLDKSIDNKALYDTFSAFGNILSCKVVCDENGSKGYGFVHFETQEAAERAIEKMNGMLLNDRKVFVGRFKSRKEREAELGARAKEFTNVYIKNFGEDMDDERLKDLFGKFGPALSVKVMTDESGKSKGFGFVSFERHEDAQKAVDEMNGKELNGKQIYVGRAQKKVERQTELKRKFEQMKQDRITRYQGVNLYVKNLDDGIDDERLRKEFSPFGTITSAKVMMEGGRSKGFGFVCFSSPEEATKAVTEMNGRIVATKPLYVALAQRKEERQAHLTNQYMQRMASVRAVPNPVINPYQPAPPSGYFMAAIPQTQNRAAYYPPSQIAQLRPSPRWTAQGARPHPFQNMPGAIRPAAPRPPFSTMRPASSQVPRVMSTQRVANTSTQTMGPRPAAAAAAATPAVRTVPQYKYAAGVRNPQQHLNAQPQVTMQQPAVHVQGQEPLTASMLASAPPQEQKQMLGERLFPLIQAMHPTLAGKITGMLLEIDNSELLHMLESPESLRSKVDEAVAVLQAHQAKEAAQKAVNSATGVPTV
Chain of Peroxisome proliferator-activated receptor gamma/Nuclear receptor coactivator 1 (P37231 whole entry): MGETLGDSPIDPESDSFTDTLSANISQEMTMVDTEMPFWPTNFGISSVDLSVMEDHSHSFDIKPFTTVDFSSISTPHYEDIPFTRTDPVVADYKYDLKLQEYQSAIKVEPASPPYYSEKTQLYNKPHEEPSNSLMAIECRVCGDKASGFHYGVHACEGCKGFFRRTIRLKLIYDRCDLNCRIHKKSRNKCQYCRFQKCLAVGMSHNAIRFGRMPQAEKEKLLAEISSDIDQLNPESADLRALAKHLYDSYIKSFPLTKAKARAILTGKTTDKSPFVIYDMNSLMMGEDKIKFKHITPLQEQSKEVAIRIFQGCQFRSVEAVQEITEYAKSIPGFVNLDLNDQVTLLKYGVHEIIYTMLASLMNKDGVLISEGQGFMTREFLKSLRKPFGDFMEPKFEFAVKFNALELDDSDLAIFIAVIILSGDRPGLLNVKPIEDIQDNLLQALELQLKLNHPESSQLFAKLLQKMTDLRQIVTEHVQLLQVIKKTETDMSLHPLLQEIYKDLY
Chain of Peroxisome proliferator-activated receptor gamma/Nuclear receptor coactivator 1 (Q15788 whole entry, further chain): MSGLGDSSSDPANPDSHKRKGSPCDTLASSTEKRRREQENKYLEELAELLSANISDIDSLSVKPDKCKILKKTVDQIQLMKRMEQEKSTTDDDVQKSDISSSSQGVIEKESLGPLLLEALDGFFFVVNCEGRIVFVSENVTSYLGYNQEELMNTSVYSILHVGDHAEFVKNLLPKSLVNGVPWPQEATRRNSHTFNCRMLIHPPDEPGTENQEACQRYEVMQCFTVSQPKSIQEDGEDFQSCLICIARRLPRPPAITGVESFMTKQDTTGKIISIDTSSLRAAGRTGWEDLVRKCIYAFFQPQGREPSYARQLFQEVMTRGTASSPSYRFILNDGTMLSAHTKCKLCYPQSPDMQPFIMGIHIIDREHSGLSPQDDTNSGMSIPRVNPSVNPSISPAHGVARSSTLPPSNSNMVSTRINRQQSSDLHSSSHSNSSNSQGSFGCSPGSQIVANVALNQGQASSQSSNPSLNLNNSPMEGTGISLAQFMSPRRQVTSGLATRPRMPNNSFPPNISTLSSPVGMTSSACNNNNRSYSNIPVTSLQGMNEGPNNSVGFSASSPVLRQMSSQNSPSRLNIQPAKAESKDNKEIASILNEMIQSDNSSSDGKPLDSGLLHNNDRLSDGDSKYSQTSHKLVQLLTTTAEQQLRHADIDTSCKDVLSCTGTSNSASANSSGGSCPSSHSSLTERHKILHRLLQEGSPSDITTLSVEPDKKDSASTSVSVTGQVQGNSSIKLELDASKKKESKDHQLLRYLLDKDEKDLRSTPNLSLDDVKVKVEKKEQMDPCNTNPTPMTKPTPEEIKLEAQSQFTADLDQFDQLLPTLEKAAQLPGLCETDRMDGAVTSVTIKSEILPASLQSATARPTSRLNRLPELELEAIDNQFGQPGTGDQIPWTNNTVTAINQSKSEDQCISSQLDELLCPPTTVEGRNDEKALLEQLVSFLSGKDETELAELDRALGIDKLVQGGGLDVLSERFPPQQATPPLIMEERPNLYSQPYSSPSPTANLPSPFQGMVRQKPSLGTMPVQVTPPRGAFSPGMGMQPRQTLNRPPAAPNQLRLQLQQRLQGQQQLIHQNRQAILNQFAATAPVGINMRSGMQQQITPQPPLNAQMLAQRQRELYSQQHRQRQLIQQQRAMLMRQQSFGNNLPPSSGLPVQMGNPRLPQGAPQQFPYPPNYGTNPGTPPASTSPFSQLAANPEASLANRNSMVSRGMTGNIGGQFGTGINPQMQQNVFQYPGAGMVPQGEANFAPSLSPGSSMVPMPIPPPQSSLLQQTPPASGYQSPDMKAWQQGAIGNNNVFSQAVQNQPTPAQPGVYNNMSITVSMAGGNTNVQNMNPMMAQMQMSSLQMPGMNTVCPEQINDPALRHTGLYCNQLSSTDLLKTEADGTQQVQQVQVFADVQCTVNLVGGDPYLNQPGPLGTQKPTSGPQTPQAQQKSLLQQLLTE
Chain of Peroxisome proliferator-activated receptor gamma/Nuclear receptor coactivator 2 (P37231 whole entry): as the sequence (P37231 whole entry) above
Chain of Peroxisome proliferator-activated receptor gamma/Nuclear receptor coactivator 2 (Q15596 whole entry, further chain): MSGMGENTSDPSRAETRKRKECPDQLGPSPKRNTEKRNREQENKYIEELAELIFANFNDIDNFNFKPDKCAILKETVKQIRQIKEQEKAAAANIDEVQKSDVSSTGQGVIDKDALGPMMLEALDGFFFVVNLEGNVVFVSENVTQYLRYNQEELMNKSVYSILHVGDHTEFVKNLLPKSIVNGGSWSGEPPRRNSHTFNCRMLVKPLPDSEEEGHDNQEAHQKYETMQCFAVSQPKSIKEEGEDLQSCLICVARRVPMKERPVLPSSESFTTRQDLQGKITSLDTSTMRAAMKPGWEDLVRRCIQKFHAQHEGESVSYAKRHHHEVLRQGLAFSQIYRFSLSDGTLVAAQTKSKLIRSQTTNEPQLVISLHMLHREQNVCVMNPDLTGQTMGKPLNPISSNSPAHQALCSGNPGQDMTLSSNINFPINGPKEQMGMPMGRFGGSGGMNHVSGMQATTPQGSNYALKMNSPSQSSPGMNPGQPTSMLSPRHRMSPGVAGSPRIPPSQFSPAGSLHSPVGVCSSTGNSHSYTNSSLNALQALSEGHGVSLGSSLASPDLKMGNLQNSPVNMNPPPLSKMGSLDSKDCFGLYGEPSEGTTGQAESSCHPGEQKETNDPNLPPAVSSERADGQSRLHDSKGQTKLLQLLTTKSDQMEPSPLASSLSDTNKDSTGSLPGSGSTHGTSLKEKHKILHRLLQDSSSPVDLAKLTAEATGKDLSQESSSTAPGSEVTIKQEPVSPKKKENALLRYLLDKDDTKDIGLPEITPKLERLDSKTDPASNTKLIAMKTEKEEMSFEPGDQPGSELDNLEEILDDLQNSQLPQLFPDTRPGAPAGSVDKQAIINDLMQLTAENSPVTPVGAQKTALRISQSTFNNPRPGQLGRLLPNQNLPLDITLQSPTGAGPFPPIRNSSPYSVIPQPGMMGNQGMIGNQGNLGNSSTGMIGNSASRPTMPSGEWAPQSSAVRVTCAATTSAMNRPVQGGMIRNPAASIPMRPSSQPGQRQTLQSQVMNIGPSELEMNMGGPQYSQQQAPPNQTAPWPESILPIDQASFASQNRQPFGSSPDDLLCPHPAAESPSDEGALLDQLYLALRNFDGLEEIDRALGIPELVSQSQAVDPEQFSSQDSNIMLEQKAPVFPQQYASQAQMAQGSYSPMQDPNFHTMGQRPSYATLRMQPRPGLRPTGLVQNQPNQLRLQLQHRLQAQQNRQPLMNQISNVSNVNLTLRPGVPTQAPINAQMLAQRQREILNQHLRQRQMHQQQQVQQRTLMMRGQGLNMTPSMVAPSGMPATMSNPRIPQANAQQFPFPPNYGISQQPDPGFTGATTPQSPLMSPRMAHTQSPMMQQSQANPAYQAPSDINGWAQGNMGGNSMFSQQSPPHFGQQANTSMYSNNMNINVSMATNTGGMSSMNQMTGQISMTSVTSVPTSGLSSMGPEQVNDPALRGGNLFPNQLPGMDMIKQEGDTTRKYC

IC50 [1]: > 100 µM (inactive) | IC50 [2]: > 66 µM (inactive) | IC50 [3]: > 66 µM (inactive) | IC50 [4]: > 100 µM (not active)
Structure (SMILES): Cc1cccc(N(CC(N)=O)C2SC(=O)N(c3ccccc3)C2=O)c1 (stereo not drawn)

EC50 [5]: 10.3 µM (not active) | IC50 [6]: 0.813 µM (active) | IC50 [7]: 1.23 µM (active) | EC50 [8]: 4.06 µM (active) | EC50 [9]: 3.98 µM (active)
Structure (SMILES): Cc1nc2ccc3nc(NC(=O)c4ccc5c(c4)OCCO5)sc3c2s1

Structure (SMILES): CC1CCN(S(=O)(=O)c2ccc3nc(-c4ccccn4)cc(C(=O)NCCN(C)Cc4ccccc4)c3c2)CC1
EC50 [10]: > 91.2 µM (inactive) | EC50 [11]: > 100 µM (inactive) | IC50 (Coagulation factor XII): > 50 µM (inactive) | EC50 [12]: > 91.2 µM (inactive)

EC50 (Troponin, cardiac muscle): > 71.5 µM (inactive)
Structure (SMILES): O=C(Nc1ccc(C(=O)N2CCOCC2)cc1)Nc1cccc(Cl)c1

IC50 (SUMO-activating enzyme): 41.5 µM (active)
Structure (SMILES): CN(C)c1ccc(NC(=O)c2sc(SCC(=O)Nc3ccc(Br)cc3)nc2N)cc1

EC50 (Troponin, cardiac muscle): > 71.5 µM (inactive)
Structure (SMILES): CCc1ccc(C(=O)NNC(=O)c2cccc(N3C(=O)CCC3=O)c2)cc1

IC50 [13]: > 10 µM (inactive) | IC50 [14]: > 10 µM (inconclusive)
Structure (SMILES): COc1ccc(S(=O)(=O)Nc2ccc3ccccc3c2)c(OC)c1

EC50 [5]: 40.7 µM (not active) | EC50 [8]: 13.8 µM (inactive) | EC50 [9]: 10.8 µM (not active)
Structure (SMILES): Cc1ccc(-c2cc(C(=O)NCc3cn(C)nc3C)c3cc(Br)ccc3n2)cc1

IC50 [1]: > 100 µM (inactive) | IC50 [15]: > 47.1 µM (inactive) | EC50 [16]: > 53 µM (inactive) | IC50 [4]: > 100 µM (not active)
Structure (SMILES): CC1=C(C(=O)NCc2ccccn2)C2(CCC(C)CC2)OC1=O (stereo not drawn)

Structure (SMILES): CC(C)(C)OC(=O)NCCCCCc1cn([C@@H](CO)C(=O)NCCCCCCCCCCC(=O)N2CCN(C(=O)OC(C)(C)C)CC2)nn1
EC50 [11]: > 100 µM (inactive) | IC50 [17]: 3.28 µM (active) | AC50 (INS1): 5.45 µM (active)
